From patent US7601736B2, “Pyridine derivatives, a process for their preparation and a pharmaceutical composition containing the same” (SK Chemicals Co., Ltd., priority 2003, dated 2009)

Experiments:
TNF-α [1] = test: Cytokine inhibitory activity in animal model (LPS-treated SD rats), plasma TNF-α; format: in vivo, Sprague Dawley (SD) rats; details: for inhibition in vivo at 40 mg/kg: Rattus norvegicus, 2 h, read-out: TNF-α Inhibition Rate (Conc.); for inhibition in vivo at 40 mg/kg / TNF-α Inhibition Rate (Conc.): SD rats, oral, LPS, 40 mg/kg; for inhibitory activity on production of TNF-α compared to Indomethacin: rat model, in words
Protocol: Sprague Dawley (SD) rats with body weights of about 180 to about 200 g were fasted (free drinking) and then tested. Test compounds were administered orally at 40 mg/kg and then abdominally administered with LPS 1 μg/mL after 1 hour. After 2 hours, the rats were sacrificed and bloods were collected from abdominal vein, stored at room temperature for about 2 hours, and then centrifuged at 12,000 rpm for about 2 minutes. Thus produced plasma was respectively collected and its TNF-α in each plasma was quantitated using mouse TNF-α ELISA kit based on the amount of recombinant TNF-α in rats. The plate used was coated with anti-rat TNF-α monoclone IgG antibodies. Likewise, for the test of IL-1α, IL-1α in each plasma was quantitated using the above plasma and mouse IL-1α ELISA kit based on the amount of recombinant IL-1α in rats. The plate used was coated with anti-rat IL-1α monoclone IgG antibodies. Further, for the test of IL-6, IL-6 in each plasma was quantitated using the above plasma and mouse IL-6 ELISA kit based on the amount of recombinant IL-6 in rats. Further, for the test of INF-γ, INF-γ in each plasma was quantitated using the above plasma and mouse INF-γ ELISA kit based on the amount of recombinant INF-γ in rats. The plate used was coated with anti-rat INF-γ monoclone IgG antibodies. From the above tests, inhibitory rates on the expression of each cytokine were obtained and they were compared to that of Indomethacin.

TNF-α [2] = test: Cytokine inhibitory activity in cells: LPS-induced TNF-α in RAW 264.7; format: cell-based, murine; details: for inhibition at 1 µM / inhibition at 10 µM / inhibition at 100 µM / inhibition at 1000 µM: Mus musculus, RAW264.7, read-out: TNF-α Inhibition Rate (%); for inhibition at 1 µM / inhibition at 10 µM / inhibition at 100 µM / inhibition at 1000 µM / TNF-α Inhibition Rate (%): RAW 264.7, LPS 1 μg/mL; for inhibitory activity in RAW 264.7 cell line on the production of TNF-α, in words: compared to the control compounds
Protocol: General reagents used were purchased from Sigma-Aldrich chem. Co. and cytokine inhibitory activities were tested as follows. Mediums and reagents used in cell culture were purchased from GIBCO BRL (USA), and mouse TNF-α ELISA kit was purchased from R&D system (USA). The apparatus used ELISA reader (Spectra max-Plus 384, Molecular Device, USA).
Murine macrophage cell line RAW 264.7 was kindly provided by Korean Tissue Culture Center (KTCC). The cell line was cultured in DMEM medium containing 10% FBS, in a cell culturing device at the condition of 37° C., 5% CO2. First, murine RAW 264.7 was cultured in DMEM medium containing 10% FBS for about 24 hours, and cells were planted 200 μL each in 96 well plates at the concentration of 5×10^5/mL and cultured for about 24 hours. Then, test compounds were treated at various concentrations and then reacted at 37° C. for about 1 hour, wherein 1 μg/mL of lipopolysaccharide (LPS) was added thereto and reacted at 37° C. for about 12 hours. The supernatant was recovered and the amount of murine TNF-α on the medium was quantitated using ELISA kit. Thalidomide was respectively used as a positive and a negative control to compare the activities and the results are shown in the following tables 4a -4c.

[3] = tested on: ICR (Institute of Cancer Research) mouse; test: Croton oil-induced ear edema test; format: in vivo; details: oral, 100 mg/kg
Protocol: (§1) Male ICR (Institute of Cancer Research) mouse with body weight of about 20 to 30 g were tested wherein each group had 6 mouses. After 1 hour of the oral administration of a test compound, Croton oil (in acetone solution) was coated on one of the ears. After 4 hours, the thickness of the swollen ear in treated group was compared with the other unswollen ear and obtained the average increase rate in thickness of ear by the treatment.

[4] = tested on: ICR (Institute of Cancer Research) mouse; test: Analgesic test (acetic acid-induced stretchings); format: in vivo; details: oral, 100 mg/kg
Protocol: Male ICR (Institute of Cancer Research) mouse with body weight of about 20 to 30 g were tested wherein each group had 6 mouses. After 1 hour of the oral administration of a test compound, acetic acid (in distilled water) was abdominally administered. For the duration of 10 minutes, the animals were observed regarding the number of stretchings and the number was compared with that of placebo treated group and the result is shown in the following table 7.

[5] = tested on: ICR (Institute of Cancer Research) mouse; test: Arachidonic acid-induced ear edema test; format: in vivo; details: oral, 100 mg/kg
Protocol: as §1, with “Arachidonic acid” for “Croton oil”, “1 hour,” for “4 hours,”

Compound | inhibition in vivo at 40 mg/kg (TNF-α [1]) | inhibitory activity on production of TNF-α compared to Indomethacin (TNF-α [1]) | inhibition at 1 µM (TNF-α [2]; test conc. 1 μM) | inhibition at 10 µM (TNF-α [2]; test conc. 10 μM) | inhibition at 100 µM (TNF-α [2]; test conc. 100 μM) | inhibition at 1000 µM (TNF-α [2]; test conc. 1 mM) | inhibitory activity in RAW 264.7 cell line on the production of TNF-α, in words (TNF-α [2]) | TNF-α Inhibition Rate (Conc.) (TNF-α [1]) | TNF-α Inhibition Rate (%) (TNF-α [2]; test conc. 1 μM) | TNF-α Inhibition Rate (%) (TNF-α [2]; test conc. 10 μM) | TNF-α Inhibition Rate (%) (TNF-α [2]; test conc. 100 μM) | TNF-α Inhibition Rate (%) (TNF-α [2]; test conc. 1 mM) | Inhibition Rate (%) [3] | Inhibition Rate (%) [4] | Inhibition Rate (%) [5]
Cc1cc2c(c(-c3ccc(F)cc3)n1)C(=O)OCC2 [Ex. 30, 8-(4-fluorophenyl)-6-methyl-3,4-dihydro-pyrano[3,4-c]pyridine-1-on] | 79% | 1.5 or 2 times greater | 100% | 100% | 100% | 100% | superiorities over to the control compounds | – | – | – | – | – | – | – | –
Cc1nc(-c2ccccc2)cc2c1C(=O)OCC2 [Ex. 77, 8-methyl-6-phenyl-3,4-dihydro-pyrano[3,4-c]pyridine-1-on] | 66% | – | 68% | 76% | 89% | 100% | superiorities over to the control compounds | – | – | – | – | – | – | – | –
O=C1c2cnccc2CCN1Cc1ccccc1 [Ex. 117, 2-benzyl-3,4-dihydro-2H-[2,7]naphtyridine-1-on] | – | – | – | – | – | – | – | 69% (40 mg/kg) | 10% | 18% | 29% | 35% | – | – | –
CC(=O)Oc1nc(C)cc2c1C(=O)OCC2 [Ex. 21, 6-methyl-1-oxo-3,4-dihydro-1H-pyrano[3,4-c]pyridine-8-yl acetic ester] | – | 1.5 or 2 times greater | – | – | – | – | – | 93% (40 mg/kg) | 9% | 15% | 34% | 77% | – | – | –
Cc1ccc(-c2cc(C(F)(F)F)nn2-c2ccc(S(N)(=O)=O)cc2)cc1 [Celecoxib, reference compound] | – | – | – | – | – | – | – | – | – | – | – | – | 35% | 81% | 33%
Cc1cc2c(c(N)n1)C(=O)OCC2 [Ex. 53, 8-amino-6-methyl-3,4-dihydro-pyrano[3,4-c]pyridine-1-on] | 53% | – | 85% | 100% | 100% | 100% | superiorities over to the control compounds | – | – | – | – | – | – | – | –
Cc1cc2c(c(N3CCOCC3)n1)C(=O)OCC2 [Ex. 33, 6-methyl-8-morpholine-4-yl-3,4-dihydro-pyrano[3,4-c]pyridine-1-on] | 90% | 1.5 or 2 times greater | – | 9% | 18% | 29% | – | – | – | – | – | – | – | – | –
COc1nc(-c2ccccc2)cc2c1C(=O)OCC2 [Ex. 79, 8-methoxy-6-phenyl-3,4-dihydro-pyrano[3,4-c]pyridine-1-on] | 78% | 1.5 or 2 times greater | 76% | 8% | 94% | 100% | superiorities over to the control compounds | – | – | – | – | – | – | – | –
Cc1cc2c(c(N3CCCCC3)n1)C(=O)OCC2 [Ex. 32, 6-methyl-8-piperidine-1-yl-3,4-dihydro-pyrano[3,4-c]pyridine-1-on] | 74% | 1.5 or 2 times greater | 69% | 78% | 89% | 100% | – | – | – | – | – | – | – | – | –
COc1ccc(CN2CCc3ccncc3C2=O)cc1 [Ex. 115, 2-(4methoxy-benzyl)-3,4-dihydro-2H-[2,7]naphtyridine-1-on] | – | – | – | – | – | – | – | 43% (40 mg/kg) | 50% | 59% | 65% | 78% | – | – | –
CC(=O)Oc1nc(-c2ccccc2)cc2c1C(=O)OCC2 [Ex. 78, 1-oxo-6phenyl-3,4-dihydro-1H-pyrano[3,4-c]pyridine-8-yl acetic ester] | – | – | – | – | – | – | superiorities over to the control compounds | 68% (40 mg/kg) | 79% | 85% | 98% | 100% | – | – | –
